Results published in ChEMBL document CHEMBL5653631, “A Potent and Selective ULK1 Inhibitor Suppresses Autophagy and Sensitizes Cancer Cells to Nutrient Stress” (iScience, 2018).

Experiments:
[1] = target: T1, Serine/threonine-protein kinase PLK4 (Homo sapiens) (UniProt O00444); assay: Inhibition of human recombinant PLK4 at 500 nM related to control ULK1
T1 sequence (whole entry): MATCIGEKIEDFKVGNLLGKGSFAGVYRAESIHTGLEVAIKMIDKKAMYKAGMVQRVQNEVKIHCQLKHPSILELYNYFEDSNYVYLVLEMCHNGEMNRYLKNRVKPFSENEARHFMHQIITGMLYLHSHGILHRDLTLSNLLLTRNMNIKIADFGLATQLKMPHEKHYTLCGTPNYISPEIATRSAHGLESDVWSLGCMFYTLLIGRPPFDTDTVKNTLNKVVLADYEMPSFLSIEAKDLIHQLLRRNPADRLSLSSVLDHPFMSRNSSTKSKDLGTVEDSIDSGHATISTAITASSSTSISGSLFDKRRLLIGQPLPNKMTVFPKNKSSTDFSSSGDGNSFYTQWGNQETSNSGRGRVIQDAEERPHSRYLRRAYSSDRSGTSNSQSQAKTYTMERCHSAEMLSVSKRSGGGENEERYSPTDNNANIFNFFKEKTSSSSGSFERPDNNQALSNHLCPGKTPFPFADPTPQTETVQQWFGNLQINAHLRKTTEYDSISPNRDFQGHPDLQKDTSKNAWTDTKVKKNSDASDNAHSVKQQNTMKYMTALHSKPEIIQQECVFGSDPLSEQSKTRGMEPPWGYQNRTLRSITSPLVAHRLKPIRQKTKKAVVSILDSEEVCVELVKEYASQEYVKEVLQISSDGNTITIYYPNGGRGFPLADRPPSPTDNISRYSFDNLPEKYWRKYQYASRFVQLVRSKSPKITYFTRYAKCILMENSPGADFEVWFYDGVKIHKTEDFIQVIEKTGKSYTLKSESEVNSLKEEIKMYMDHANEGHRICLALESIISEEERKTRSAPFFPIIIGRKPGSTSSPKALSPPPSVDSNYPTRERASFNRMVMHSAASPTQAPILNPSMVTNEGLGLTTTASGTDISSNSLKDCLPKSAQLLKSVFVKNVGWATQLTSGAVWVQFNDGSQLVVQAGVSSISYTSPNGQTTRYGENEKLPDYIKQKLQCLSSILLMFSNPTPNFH

[2] = target: T2, Ephrin type-B receptor 2 (Homo sapiens) (UniProt P29323); assay: Inhibition of human recombinant EphB2 at 40 nM related to control ULK1
T2 sequence (whole entry): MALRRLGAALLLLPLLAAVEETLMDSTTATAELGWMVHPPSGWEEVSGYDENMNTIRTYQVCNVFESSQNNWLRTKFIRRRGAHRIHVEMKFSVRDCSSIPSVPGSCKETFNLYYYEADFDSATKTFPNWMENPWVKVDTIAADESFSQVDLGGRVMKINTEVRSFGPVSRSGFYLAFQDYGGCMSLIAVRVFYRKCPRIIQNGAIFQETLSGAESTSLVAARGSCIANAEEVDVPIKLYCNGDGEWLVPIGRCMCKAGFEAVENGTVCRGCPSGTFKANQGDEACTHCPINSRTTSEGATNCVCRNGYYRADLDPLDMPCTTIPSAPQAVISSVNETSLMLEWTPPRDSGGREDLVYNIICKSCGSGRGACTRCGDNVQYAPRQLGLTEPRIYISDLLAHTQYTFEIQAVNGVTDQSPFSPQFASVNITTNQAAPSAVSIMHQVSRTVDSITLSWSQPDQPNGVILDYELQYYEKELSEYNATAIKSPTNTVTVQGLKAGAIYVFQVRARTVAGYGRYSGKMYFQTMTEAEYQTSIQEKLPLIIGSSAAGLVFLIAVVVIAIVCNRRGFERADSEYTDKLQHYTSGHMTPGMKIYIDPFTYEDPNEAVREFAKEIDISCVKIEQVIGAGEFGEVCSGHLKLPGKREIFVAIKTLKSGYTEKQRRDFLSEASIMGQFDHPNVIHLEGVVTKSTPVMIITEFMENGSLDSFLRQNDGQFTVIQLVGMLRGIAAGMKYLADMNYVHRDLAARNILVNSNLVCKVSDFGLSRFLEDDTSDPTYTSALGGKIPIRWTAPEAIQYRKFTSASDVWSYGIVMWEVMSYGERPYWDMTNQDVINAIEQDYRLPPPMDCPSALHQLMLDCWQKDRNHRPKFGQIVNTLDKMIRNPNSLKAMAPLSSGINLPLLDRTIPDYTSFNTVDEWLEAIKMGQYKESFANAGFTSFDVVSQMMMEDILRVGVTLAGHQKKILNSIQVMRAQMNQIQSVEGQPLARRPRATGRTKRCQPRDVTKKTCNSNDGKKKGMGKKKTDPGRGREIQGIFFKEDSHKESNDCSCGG

[3] = target: Receptor tyrosine-protein kinase erbB-4 (Homo sapiens) (UniProt Q15303); assay: Inhibition of human recombinant ErbB4 at 40 nM in presence of ATP by radiometric assay relative to control
Receptor tyrosine-protein kinase erbB-4 (Homo sapiens), sequence (Q15303 whole entry): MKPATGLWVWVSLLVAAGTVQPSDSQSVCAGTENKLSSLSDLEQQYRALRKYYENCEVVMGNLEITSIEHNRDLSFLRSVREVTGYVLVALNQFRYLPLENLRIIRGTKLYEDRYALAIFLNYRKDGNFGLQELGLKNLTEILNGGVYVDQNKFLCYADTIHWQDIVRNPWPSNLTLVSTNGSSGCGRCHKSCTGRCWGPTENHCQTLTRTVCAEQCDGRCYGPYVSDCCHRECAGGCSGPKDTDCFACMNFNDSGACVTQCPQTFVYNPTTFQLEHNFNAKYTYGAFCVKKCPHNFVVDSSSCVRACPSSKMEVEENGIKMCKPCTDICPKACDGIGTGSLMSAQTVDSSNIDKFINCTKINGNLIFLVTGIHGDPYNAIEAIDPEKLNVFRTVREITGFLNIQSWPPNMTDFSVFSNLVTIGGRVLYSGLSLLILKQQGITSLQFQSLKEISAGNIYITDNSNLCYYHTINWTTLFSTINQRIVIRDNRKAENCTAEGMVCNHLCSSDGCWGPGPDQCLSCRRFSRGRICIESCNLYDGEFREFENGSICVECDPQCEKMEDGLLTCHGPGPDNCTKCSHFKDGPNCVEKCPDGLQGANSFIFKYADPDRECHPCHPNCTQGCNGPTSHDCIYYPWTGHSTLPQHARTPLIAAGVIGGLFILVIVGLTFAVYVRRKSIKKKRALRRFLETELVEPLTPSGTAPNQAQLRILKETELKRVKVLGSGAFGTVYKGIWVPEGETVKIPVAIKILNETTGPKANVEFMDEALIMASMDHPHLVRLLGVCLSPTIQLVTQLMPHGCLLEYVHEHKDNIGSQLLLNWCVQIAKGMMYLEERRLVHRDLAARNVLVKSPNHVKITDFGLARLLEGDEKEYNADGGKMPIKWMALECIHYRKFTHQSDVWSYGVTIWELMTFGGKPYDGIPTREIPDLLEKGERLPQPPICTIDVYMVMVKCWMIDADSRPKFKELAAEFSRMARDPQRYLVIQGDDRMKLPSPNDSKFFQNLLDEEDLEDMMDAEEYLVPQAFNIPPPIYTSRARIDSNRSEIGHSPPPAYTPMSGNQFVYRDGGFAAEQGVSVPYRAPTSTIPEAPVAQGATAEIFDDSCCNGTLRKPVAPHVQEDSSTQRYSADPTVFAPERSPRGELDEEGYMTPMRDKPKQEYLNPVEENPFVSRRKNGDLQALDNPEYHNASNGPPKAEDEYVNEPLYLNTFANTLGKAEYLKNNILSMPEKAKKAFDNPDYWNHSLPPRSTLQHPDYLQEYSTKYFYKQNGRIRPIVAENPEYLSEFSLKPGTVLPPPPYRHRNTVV

| fold change (FC) [1] | fold change (FC) [2] | inhibition [3] | SMILES |
| --- | --- | --- | --- |
| 0.62 | – | – | CNC(=O)c1ccccc1Oc1nc(Nc2cc(OC)c(OC)c(OC)c2)ncc1Br |
| – | 0.05 | 0% | O=C(N[C@@H](C1CC1)C(F)(F)F)c1cc(-c2cnn3cc(-c4ccc(F)cc4)cnc23)cs1 |
